How the values were obtained:
[1] = Mutagenesis model: base-pairing preference of tautomers combined with NMR tautomeric distribution; conditions: assuming imine geometric isomers present in equal proportions
Experimental: One of the fundamental assumptions in developing a mutagenesis model is that each KP1212 tautomer has a distinct base-pairing preference. To establish these preferences, in a relatively simple modeling exercise each tautomer was analyzed for its most probable base-pairing partner on the basis of hydrogen bonding. The primary criterion for correct base-pairing was formation of the maximum number of Watson-Crick type hydrogen bonds between the bases. Each type of hydrogen bond was considered to confer an equal stabilization energy. Configurations in which multiple base pairs had equal hydrogen bond numbers were considered equally probable. Since KP1212 is a cytosine (pyrimidine) analog, and the primary mutagenic events are A to G or G to A, our modeling exercise explored only purine-pyrimidine putative base pairs. Several KP1212 tautomers featured a canonical Watson-Crick face. Thus, tautomers enol-amino (1), enol-imino (2Z) and keto-amino (4) were predicted to pair with guanine, while keto-imino (5E) was predicted to pair with adenine (FIG. 19). The remaining tautomers could not adopt a canonical Watson-Crick face and therefore were hypothesized to pair in other geometries (i.e., wobble pairings, or syn-conformer pairings). […]

[2] = Phase I and II clinical trials; cited from earlier work
HK82-SOS = experiment: REAP mutagenesis assay, HK82-SOS cells; assay type: cell-based, E. coli; conditions: (b) HK82-SOS
Source text: All E. coli strains used in this work contain the F′ episome, which enables infection by M13 phage. GW5100 strain was used for large scale preparation of M13 phage DNA, SCS 110 (JM110, end Al) was used for amplification of progeny phage post-electroporation, and NR9050 was the strain of choice for double agar plating with X-GAL for blue-clear detection of plaques. The E. coli strains used to replicate lesion-containing phage were HK81 (as AB1157, but nalA) and HK82 (as AB1157, but nalA alkB22; AlkB-deficient).
Lesion-containing genomes were mixed with the competitor genome (80:20 molar ratio) and electroporated in triplicate into 100 μl competent cells using a 2 mm-gap cuvette and a BTX electroporator set to 2.5 kV and 125 a Typical pulse lengths were 4.9 msec. The cells were immediately transferred to 10 ml LB and an aliquot was immediately plated using the agar overlay method to verify that a minimum of 10^5 independent initial electroporation events occurred in 10 ml of culture. Incubation for 6 h at 37° C. with aeration generated the progeny phage, which were then reamplified in SCS 110 cells (10 μl overnight culture and 100 μl of the 6 h supernatant in 10 ml LB) to dilute out the residual genomic DNA used for electroporation. Single-stranded M13 progeny phage DNA was isolated from 1.4 ml of supernatant using a Q1Aprep Spin M13 Kit with final DNA suspension in 100 μl elution buffer. CRAB forward and reverse primers were used to amplify the region of interest from 15 μl per Q1Aprep elution sample in a total volume of 25 μl containing 50 pmol of each primer, 1×Pfu Turbo buffer, 1.25 U Pfu Turbo DNA polymerase and […] of each dNTP. The PCR program used 30 cycles of 67° C. (1 min) annealing and 72° C. (1 min) extensions. After purification using QIAQUICK PCR purification columns, 4 μl of the PCR product were treated with BbsI (1.5 U) and SAP (0.3 U) in a total volume of 6 μl by incubating at 37° C. for 4 h. After phosphatase inactivation, (80° C. for 5 min), the 5′ ends were then radiolabeled using [γ-^32P]-ATP (1.66 pmol, 10 μCi/μl, 6000 Ci/mmol), cold ATP (16 pmol) and 5 U of OPTIKINASE at 37° C. for 30 min. Following the kinase inactivation at 65° C. for 20 min, the labeled product was then trimmed by HaeIII (10 U in a final volume of 10 μl) at 37° C. for 2 h, and diluted 1:1 in formamide loading dye. PAGE separation on a 20% denaturing gel, run for about 3.5 h at 550 V, until the xylene cyanol dye migrated 10.5 cm, yielded two bands for each sample: an 18-mer originating from the lesion-containing genome and a 21-mer originating from the competitor genome. The gels were visualized on a phosphorimager (Typhoon 7000, GE Healthcare Life Sciences); the band intensities were quantified using IMAGEJ software (National Institutes of Health). Lesion bypass was calculated as the percentage ratio of the intensity of the 18-mer band (lesion signal) to the intensity of the 21-mer band (competitor signal).
The REAP assay methodology is identical to the CRAB assay except for the PCR primers, which amplified only the progeny DNA originating from the lesion-carrying genomes. Following electrophoresis, the 18-mer bands were excised from the gel, crushed and extracted with 200 μl water. After desalting with SEPHADEX G-50 Fine resin spin columns, the samples were lyophilized to dryness, resuspended in 5 μl containing 1 μg P1 Nuclease in 30 mM sodium acetate (pH 5.3) and 10 mM zinc chloride, and incubated at 50° C. for 1 h. One μl of each sample was then spotted onto PEI-TLC plates and separated using 200 ml of a saturated solution of (NH4)2HPO4 adjusted to pH 5.8. After 24 h of development, the TLC plates were air-dried and quantified using phosphorimagery. […]

| Structure (SMILES) | model-predicted pairing with A [1] | model-predicted pairing with G [1] | safety in clinical trials [2] | Mutagenicity, Average % A (HK82-SOS) [%] | Mutagenicity, Average % C (HK82-SOS) [%] | Mutagenicity, Average % G (HK82-SOS) [%] | Mutagenicity, Average % T (HK82-SOS) [%] |
| --- | --- | --- | --- | --- | --- | --- | --- |
| NC1=NC(=O)N([C@H]2C[C@H](O)[C@@H](CO)O2)CN1 [KP1212, 5-aza-5,6-dihydro-2′-deoxycytidine] | ~20 % of the time | ~80 % of the time | safe | 0.1 | 89.4 | 0.2 | 10.3 |
| Nc1ccn([C@H]2C[C@H](O)[C@@H](CO)O2)c(=O)n1 [dC, deoxycytidine] | – | – | – | 0.1 | – | 0.0 | 0.0 |

Reference: US9283242B2, “Uses of dihydro bases” (priority 2013, dated 2016)
